Measurements reported in US20230404985A1, “METHODS OF TREATING TUMORS AND CANCERS HAVING DYSREGULATED WNT SIGNALING PATHWAYS” (ICAHN SCHOOL OF MEDICINE AT MOUNT SINAI, priority 2020, published 2023).

What was measured:
[1] = tested on: receptor tyrosine kinases including KIT and VEGFR1/2; assay: NanoBRET live cell target engagement, receptor tyrosine kinases; format: cell-based; conditions: relative to sorafenib and regorafenib
[2] = tested on: immune cell tumor infiltration; assay: Immune cell profiling of tumors by spectral cytometry; format: in vivo, mouse; conditions: compared to vehicle or standard of care (sorafenib); six days after start of dosing
Procedure: FIGS. 14A-14G show results pertaining the use of WNTinib in combination with immunotherapy. […] C57/BL6 mice were randomized into treatment groups using IVIS imaging to quantify tumor size based on luminescence signal intensity. After randomization, kinase inhibitors were dissolved in 25% cremaphor:ethanol in water and administered orally (30 mg/kg sorafenib, 20 mg/kg WNTinib) beginning 7 days after injection following 5 days on/2 days off dosing schedule. Immunotherapy (anti-PD-1) was administered via intraperitoneal injection on days 11, 13, and 15 after injection at 200 μg. Log-rank p-values for survival in drug treatment groups to vehicle group and median survival are shown. Mice were assigned to different treatment groups as follows: vehicle (25), sorafenib (10), aPD-1 (15), WNTinib (25), and WNTinib+aPD-1 (25). […] Significant differences between groups indicated by asterisks. ** P<0.005, *** P<0.0005, as calculated with an ANOVA with Tukey test for multiple comparisons. Animals were dosed via daily oral gavage using 20 mg/kg of WNTinib and 30 mg/kg of sorafenib. […] 3 animals per indicated groups were assessed using spectral cytometry panels for both lymphocytes and myeloid cells. […]
Next, the effect of WNTinib on immune cell tumor infiltration was evaluated.

AKSP tumoroids = assay: Full dose-response in CRC tumoroids (AKSP); format: cell-based, mouse; conditions: TiterGlo after 72 hours
Procedure: FIGS. 13A-13E show results pertaining to colorectal cancer. […] Data are column/gene normalized on a 0-100 scale with 0 being the lowest expression level and 100 the highest. FIG. 13D show full dose-response analysis of WNTinib's effects on the indicated organoid and tumoroid lines; viability was quantified using the TiterGlo assay after 72 hours. WT intestinal organoids are used as a control. […] Images of the intestine are shown as an example.
Next, a full dose-response of WNTinib in WildType normal organoids (WT), APC^KO (A), APC^KO KRAS^G12D/SMAD4^KO (AKS) and APC^KO KRAS^G12D/SMAD4^KO P53^KO (AKSP) tumoroids was performed. WNTinib has a lower IC50 in the aggressive metastatic AKSP tumoroids compared to their matched parental WT organoid line, providing thus a therapeutic window for the most advanced CRC models (FIG. 13D).

kinome = assay: Kinome profiling (KINOMEscan); format: binding
Procedure: WNTinib's inhibitory profile was performed using Eurofins' (DiscoverX) KINOMVEscan platform. Inhibition trees were visualized using KinMap (Eid et al., “KinMap: A Web-Based Tool for Interactive Navigation through Human Kinome Data,” BMC 10 Bioinformatics 18(1):16 (2017), which is hereby incorporated by reference in its entirety). For regorafenib and sorafenib, publicly available data was used to visualize inhibition trees (Uitdehaag et al., “Comparison of the Cancer Gene Targeting and Biochemical Selectivities of All Targeted Kinase Inhibitors Approved for Clinical Use,” Plos ONE 9(3):e92146 (2014) and Davis et al., “Comprehensive Analysis of Kinase Inhibitor Selectivity,” Nat. Biotechnol. 29(11):1046-1051 (2011), which are hereby incorporated by reference in their entirety).

With `CNC(=O)c1cc(Oc2ccc(NC(=O)Nc3ccc(C(F)(F)C(F)(F)F)cc3)c(F)c2)ccn1` [WNTinib, 4-(3-fluoro-4-(3-(4-(perfluoroethyl)phenyl)ureido)phenoxy)-N-methylpicolinamide] the “live cell target engagement IC50 on receptor tyrosine kinases” value [1] was “retained a similar in vivo IC50”, the “immune cell tumor infiltration” value [2] was “significantly increase the number of CD45^+ cells, the ratio of CD4/CD8, and the number of neutrophils and reduce the number of B cells and immunosuppressed tissue associated macrophages (TAM) in tumors” and the “IC50 in AKSP tumoroids compared to parental WT organoid line” value (AKSP tumoroids) was “lower IC50”. For the same compound, the “kinome selectivity (selectivity scores)” value (kinome; compared with sorafenib and regorafenib) was “generally less promiscuous than the parental compounds” and the kinase targets maintained (kinome; in vitro kinase assays) was “maintains several of the proposed key targets of sorafenib and regorafenib, including c-KIT, PDGFRα/β, VEGFR1/2, RET and FLT3”.
